# Data reported in patent US6569877B2, “Therapeutic and prophylactic agents for neoplasms” (Sankyo Company, Limited, priority 1999, dated 2003).
# Legend:
# [1] = system: Human large intestine cancer cells COL-2-JCK; assay: Antitumor effects upon human large intestine cancer cells COL-2-JCK (colony formation, crystal violet staining); assay type: cell-based; conditions: 300 cells/well, 10 days incubation, control (0) 3311
# Experimental: Human cancer cells from the large intestine, COL-2-JCK (moderately differentiated adenocarcinoma), purchased from the Central Institute for Experimental Animals, were employed in the Test Example of the present invention as the solid tumor strain. The proliferated CLO-2-JCK cells were cultured and used for the experiments in our laboratory. In order to subculture the strain of the cancer cells and to test compounds in the experiments, the cancer cells were cultured with D-MEM/F-12 culture medium containing bovine fetal serum (manufactured by GIBCO Co.).
# The test was carried out as follows: COL-2-JCK cells growed confluently on a petri dish for culture of cells (inner diameter 100 mm) were removed from the petri dish by using EDTA and 0.05% trypsin solution, and diluted to 100 cells/ml cell density with the culture medium. 3 ml of the diluted cell solution was then placed into each well of a 6-well plate (300 cells/well). At the same time, the test compound dissolved in DMSO solution was added so as to be 1, 10, 100 nM, 1 and 10 μM of the final concentrations to each well. The final concentration of the DMSO solution was adjusted to 0.1%. DMSO solution (0.1%) alone was placed in wells of the control group. After addition of the test compound, the cells were incubated in the presence of 5% CO2 gas for 10 days at 37° C. After incubation was terminated, each well containing the cells was washed once with Dulbecco phosphate buffer saline (bivalent ion minus). Then 1 ml of 10% neutral formalin solution containing 0.02% crystal violet was added to the well and left for 5 minutes in order to stain the cells. After the dye was fixed, the cells were washed with water and air-dried. The total colony area (mm^2) of dye-fixed tumor cells was calculated by using an image analyzer of PCA-11 (manufactured by SystemSience Co.).
# [2] = system: Human H69 lung cancer cells; assay: Antitumor effect on human H69 lung cancer cells (subcutaneous xenograft in nude mice); assay type: in vivo; conditions: H69 in BALB/c nude mice; 10 mg/kg orally once a day, 24 times; tumor volume on the 39th day after inoculation
# Source text: (§1) A piece (5 mm×5 mm) of human lung affected by H69 strain of lung cancer was subcutaneously inoculated in a group of 10 BALB/c nude mice (female, 6 weeks old). The test compounds were suspended in 5% emulsified saline containing 2.5% dimethylacetamide. They were orally administered once a day for 24 times in total, i.e., from the first day after the inoculation to the 4th day, from the 7th to the 11th day, from the 14th to the 18th day and from the 21st to the 25th day and from the 28th to the 32nd day after inoculation.
# The short diameter (mm) and the long diameter (mm) of the tumor were measured with an electronic digital caliper square on the 39th day after inoculation. The efficacy of the test compound was evaluated by calculation of the inhibitory growth rate of the tumor (GI %) according to the following equation: […]
# A: average tumor volume on the 39th day after inoculation in the group treated with the test compound (*)
# B: an average tumor volume on the 39th day after inoculation in the non-treated group (*)
# *: The tumor volume indicates ½×(long diameter of the tumor)×(short diameter of the tumor)^2.
# [3] = system: Human MKN-74 stomach cancer cells; assay: Antitumor effects on human MKN-74 stomach cancer cells (subcutaneous xenograft in nude mice); assay type: in vivo
# Source text: as §1, with “human stomach” for “human lung”, “by MKN-74” for “by H69”, “of stomach” for “of lung”, “after” for “after the”, “18th day,” for “18th day and”, “after the” for “after”
# The short diameter (mm) and the long diameter (mm) of the tumor were measured with an electronic digital caliper square on the 35th day after inoculation. The efficacy of the test compound was evaluated by calculation of the inhibitory growth rate of the tumor (GI %) in a similar to those described above in Test Example 2.
smiles,measurement,setting,value
"COc1ccc2nc(COc3ccc(CC4SC(=O)NC4=O)cc3)n(C)c2c1.Cl (centres unmarked) [Example 1, 5-[4-(6-Methoxy-1-methyl-1H-benzimidazol-2-ylmethoxy)benzyl]thiazolidine-2,4-dione hydrochloride]",Total colony area (mm^2) of tumor cells,[1]; final concentration of the test compound 1 nM,2795 mm^2
same,Total colony area (mm^2) of tumor cells,[1]; final concentration of the test compound 10 nM,2018 mm^2
same,Total colony area (mm^2) of tumor cells,[1]; final concentration of the test compound 100 nM,1352 mm^2
same,Total colony area (mm^2) of tumor cells,[1]; final concentration of the test compound 1 μM,933 mm^2
same,Total colony area (mm^2) of tumor cells,[1]; final concentration of the test compound 10 μM,768 mm^2
same,GI (%) inhibitory growth rate of the tumor,[2],57%
same,GI (%) inhibitory growth rate of the tumor,"[3]; MKN-74 in BALB/c nude mice, 10 mg/kg orally once a day, 24 times, tumor volume on the 35th day after inoculation",76%
same,suppression of proliferation of human stomach cancer cells (in words),[3]; as shown by Test Example 3,suppressed the proliferation of human stomach cancer cells to a remarkable extent
